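Step 1: Grow cells in 96-well plates. Step 2: Expose to compound for 48 hours at 5 concentrations. Step 3: Interpolate endpoints linearly; if unreached, use highest concentration. Here, GI50 denotes the concentration required for 50% inhibition of growth. TGI: concentration producing complete growth inhibition.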
Experiments:
Assay in all cases: growth of human tumour cells (NCI), 48 h
MDA-MB-231 breast = test system: MDA-MB-231 breast
BT-549 breast = test system: BT-549 breast
NCI/ADR-RES ovarian = test system: NCI/ADR-RES ovarian
HS 578T breast = test system: HS 578T breast
KM20L2 colon = test system: KM20L2 colon
HOP-18 NSCLC = test system: HOP-18 NSCLC
DMS 273 small cell lung = test system: DMS 273 small cell lung
MDA-N = test system: MDA-N

Structure (SMILES)	GI50 (MDA-MB-231 breast)	TGI (MDA-MB-231 breast)	GI50 (BT-549 breast)	TGI (BT-549 breast)	GI50 (NCI/ADR-RES ovarian)	TGI (NCI/ADR-RES ovarian)	GI50 (HS 578T breast)	TGI (HS 578T breast)	TGI (KM20L2 colon)	TGI (HOP-18 NSCLC)	TGI (DMS 273 small cell lung)	TGI (MDA-N)	GI50 (KM20L2 colon)	GI50 (DMS 273 small cell lung)
C[C@]12CC[C@@H]3c4ccc(Oc5nc(N6CC6)nc(N6CC6)n5)cc4CC[C@H]3[C@@H]1CCC2=O	10.2 µM	25.2 µM	5.92 µM	25.3 µM	4.6 µM	33.2 µM	4.64 µM	44.8 µM						
CCC(C)(O)c1cn(-c2cccc(S(=O)(=O)O)c2)nn1 (stereo not given)									> 100 µM	> 100 µM	> 100 µM			
C=C1C(=O)O[C@H]2[C@H]1CC/C(COC(=O)/C=C\C(=O)NCc1ccc(Cn3c(=O)sn(-c4ccc(C#N)cc4)c3=O)cc1)=C\CC[C@@]1(C)O[C@@H]21	0.72 µM	1.74 µM	0.697 µM	1.65 µM	1.39 µM	5.97 µM	0.987 µM	2.79 µM						
COc1cc([C@@H]2c3cc4c(cc3C(O[C@@H]3O[C@@H]5CO[C@@H](c6cccs6)OC5[C@H](O)[C@H]3O)C3COC(=O)[C@@H]32)OCO4)cc(OC)c1O (stereo not given in full)	0.267 µM	3.58 µM	0.0878 µM	1.31 µM	5.22 µM	50 µM	0.241 µM	5.03 µM						
CN(C)C(=S)/N=c1\ss/c(=N\C(=S)N(C)C)n1-c1ccc2c(c1)OCO2									> 100 µM		> 100 µM			
NC(N)=NC(N)=Nc1cc2ccccc2c2ccccc12	3.52 µM	16 µM	10.5 µM	22.8 µM	17 µM	43.2 µM	11.5 µM	33.8 µM						
Cc1[nH]c(N=Nc2ccccc2)nc1N=Nc1ccccc1	5.25 µM	> 45.4 µM	2.08 µM	8.11 µM	2.78 µM	27.3 µM	12.8 µM	> 34.8 µM						
CCOC(=O)[C@H]1Nc2ccc(C)cc2C2c3ccccc3CC21 (stereo not given in full)									> 100 µM	> 100 µM	> 100 µM			
CC(C)CSc1nc(Nc2ccccc2)c(C#N)c(-c2ccc(F)cc2)n1	2.25 µM	13 µM	7.24 µM	32.3 µM	4.87 µM	25.3 µM	1.6 µM	11 µM						
CCCCC/C=C/C/C=C/CCCCCCCC1=NC(C)(C)CN1C(C)C	1.75 µM	4.36 µM	5.84 µM	23 µM	2.32 µM	7.44 µM	1.84 µM	3.67 µM						
COc1cc(Cn2c(-c3ccccc3)cc3c2-c2oncc2CC3)cc(OC)c1OC	2.82 µM	> 100 µM			0.328 µM	> 100 µM	0.51 µM	> 100 µM						
Cc1cc(C)cc(Nc2cc(C)nc3nc(C(F)(F)F)nn23)c1	> 100 µM	> 100 µM	39.6 µM	> 100 µM	> 100 µM	> 100 µM	34.9 µM	> 100 µM						
COc1ccc(C2CC(=O)c3c(OC)cc(OC)cc3O2)cc1 (stereo not given)	> 100 µM	> 100 µM	> 100 µM	> 100 µM	> 100 µM	> 100 µM	> 100 µM	> 100 µM						
O=c1[nH]c(=O)n(C2CC(O)C(CS)O2)cc1F (stereo not given)		> 100 µM		> 100 µM		> 11.7 µM		> 100 µM	> 100 µM	> 100 µM		> 100 µM		
COc1ccc(-c2cc3c(nn2)-c2ccccc2C3=O)cc1	70 µM	> 100 µM	> 100 µM	> 100 µM	> 100 µM	> 100 µM	> 100 µM	> 100 µM				> 10 µM		
Cn1cc(C2=C(c3cn(C)c4c(N)cccc34)C(=O)NC2=O)c2ccccc21	4.63 µM	20.8 µM	1.01 µM	6.66 µM	2.02 µM	> 25 µM	0.618 µM	19 µM						
CCN(CC)C(=O)C/C(C)=N/NC(=O)c1ccncc1									> 100 µM		> 100 µM			
COc1ccc(S(=O)(=O)N(Cc2ccc3c(n2)C=CC(C)(C)O3)C2CCC2)cc1OC	< 0.01 µM	0.0131 µM	< 0.01 µM	0.171 µM	0.13 µM	> 100 µM	< 0.01 µM	0.0677 µM						
Cn1cc(-c2csc(-c3cccc(F)c3)n2)c2cccnc21	16.8 µM	35.3 µM	20.9 µM	56.1 µM	20.3 µM	50.2 µM	19.3 µM	45.5 µM						
COc1cccc(NCc2nnc(Nc3ccc(Cl)cc3)c3ccccc23)c1	1.32 µM	6.32 µM	1.9 µM	7.42 µM	2.55 µM	25 µM	2.9 µM	11.5 µM						
Cc1c2c(nn1-c1ccc(S(=O)(=O)/N=C3\SCC(=O)N3C(=O)c3ccccc3)cc1)-c1ccccc1CC2	24 µM	58.7 µM	38.6 µM	92.9 µM	> 100 µM	> 100 µM								
N#C/C(C(=S)Nc1ccccc1)=C1/NN=C2c3ccccc3C(=O)NN21	29.5 µM	> 100 µM	24.3 µM	80 µM	20.6 µM	58.8 µM	22.7 µM	57.2 µM						
CSc1nc(NC2OC(COC(C)=O)C(OC(C)=O)C(OC(C)=O)C2OC(C)=O)c2c(OC(C)=O)c(C)c(=O)oc2n1 (stereo not given)									> 100 µM	> 100 µM				
Cc1cc(NS(=O)(=O)c2ccc(NC(=O)c3cccc4c(=O)c5ccccc5[nH]c34)cc2)no1									> 100 µM	28.2 µM				
O=C(CCCSc1nc(-c2ccc(Cl)cc2)cc(-c2ccc(Cl)cc2)n1)NO	1.71 µM	13.2 µM	3.21 µM	18.6 µM	0.31 µM	1.9 µM	4.63 µM	22.8 µM						
COc1cccc(N=Cc2c3ccccc3c(=O)n3c2oc2ccccc23)c1	10.2 µM	48.7 µM	21.9 µM	> 100 µM	11.6 µM	64.3 µM	34.9 µM	> 100 µM						
CC12CCCC(CC(=O)c3[nH]c4ccccc4c31)C2 (stereo not given)	3.26 µM	43.1 µM	0.624 µM	12.8 µM	0.439 µM	6.96 µM	0.936 µM	37.8 µM						
CN1C(NC(=O)c2ccc(Cl)nc2)=NS(=O)(=O)c2cc(Cl)ccc21	> 100 µM	> 100 µM	> 100 µM	> 100 µM	> 100 µM	> 100 µM	> 100 µM	> 100 µM						

Structure (SMILES)	GI50 (MDA-MB-231 breast)	TGI (MDA-MB-231 breast)	GI50 (BT-549 breast)	TGI (BT-549 breast)	GI50 (NCI/ADR-RES ovarian)	TGI (NCI/ADR-RES ovarian)	GI50 (HS 578T breast)	TGI (HS 578T breast)	TGI (KM20L2 colon)	TGI (HOP-18 NSCLC)	TGI (DMS 273 small cell lung)	TGI (MDA-N)	GI50 (KM20L2 colon)	GI50 (DMS 273 small cell lung)
CCCNC(=S)N/N=C(\C)c1ccccn1	0.0757 µM	> 100 µM	1.44 µM	> 100 µM	0.0365 µM	> 100 µM	1.42 µM	> 100 µM						
COc1ccc(C2CC(=O)c3c(O)c(OC)c(OC)c(OC)c3O2)c(O)c1 (stereo not given)	0.997 µM	31.7 µM	0.221 µM	20.5 µM	0.0565 µM	20.6 µM	0.201 µM	48.7 µM						
CCCCNC(=O)NS(=O)(=O)c1ccc(N2N=C(c3ccc(C)cc3C)CC2c2ccc(N(C)C)cc2)cc1 (stereo not given)	5.36 µM	35.6 µM	4.11 µM	37.1 µM	4.12 µM	> 100 µM	3.95 µM	> 100 µM						
O=C(O)C(Sc1ccc(Cl)cc1)Sc1ccc(Cl)cc1		> 100 µM		> 100 µM		> 100 µM		> 100 µM				> 100 µM		
CC(C)CC(N)C(=O)O (stereo not given)		> 100 µM		> 100 µM		> 100 µM		> 100 µM				> 100 µM		
O=[N+]([O-])c1ccc2nnnn2c1		96.4 µM		> 100 µM		> 100 µM		> 100 µM						
CC(C)(C)C1=CC(=CC=C2C=CN(CCCCCCCCCCCO)C=C2)C=C(C(C)(C)C)C1=O		3.28 µM		4.44 µM		11.7 µM		4.23 µM				3.04 µM		
O=C(C[C@@H](C(=O)NCc1cccc(C(F)(F)F)c1)N1C(=O)[C@@H](N2C(=O)OC[C@@H]2c2ccccc2)[C@H]1/C=C/c1ccccc1)NC1CCN(Cc2ccccc2)CC1	4.02 µM	20 µM	2.96 µM	8.81 µM	> 100 µM	> 100 µM	10.3 µM	29.6 µM						
CC(=O)NC(CCCN)C(=O)NCc1ccccc1 (stereo not given)									> 100 µM		> 100 µM			
Nc1nccc(-c2c(-c3ccc(F)cc3)ncn2CCCN2CCOCC2)n1	> 25 µM	> 25 µM	> 25 µM	> 25 µM	> 25 µM	> 25 µM	> 25 µM	> 25 µM						
COc1cc([N+](=O)[O-])ccc1NC(=O)C(F)(F)F		> 100 µM		> 100 µM		> 100 µM		> 100 µM				> 100 µM		
O=C(NC1CCCCCC1)C1C(=O)N(C2CCCCCC2)C(=O)/C1=N\O (stereo not given)									49 µM	> 100 µM				
COc1cc2c(/C=C3/C(=O)Nc4cccc(Cl)c43)c(Cl)n(Cc3ccccc3)c2cc1C	3.38 µM	24.4 µM	6.98 µM	29.1 µM	2.76 µM	12 µM	4.34 µM	66.5 µM						
CC(C)=[CH][Sb]([Br])([CH]=C(C)C)([CH]=C(C)C)[CH]=C(C)C									> 100 µM		56.8 µM		13.1 µM	5.98 µM
COc1ccc(/C(=N/Nc2ccc([N+](=O)[O-])cc2)Sc2cc(Cl)c(C)cc2S(N)(=O)=O)cc1	3.04 µM	8.21 µM	22.2 µM	42.3 µM	5.42 µM	14.1 µM	4.82 µM	16 µM						
CCOC(=O)c1c(C)n(Cc2ccc(OC)cc2)c2c1cc(O)c1[nH]c3c(c12)CCCC3	0.617 µM	> 100 µM	4.21 µM	27.8 µM			3.26 µM	21.8 µM						
COc1ccc(-n2cc(-c3cc(OC)c(OC)c(OC)c3)[nH]c2=S)cc1OC	> 100 µM	> 100 µM	> 100 µM	> 100 µM	> 100 µM	> 100 µM	> 100 µM	> 100 µM						
NCCCCn1c2c(c3ccccc3c1=O)C(=O)c1ccccc1-2	0.23 µM	0.848 µM	0.754 µM	2.5 µM	0.709 µM	2.54 µM	0.538 µM	4.75 µM						
Cc1ccc(C(=O)/C=C/c2ccccc2O)c(C)c1									> 100 µM		> 100 µM			
CNC1C(=O)C(C)C(O)(C(CC(C)C(O)/C=C/C=C/CNC(=O)C(C)(C)C(O)\C(C)=C/C=C\C=C\Cc2cnc(C)o2)OC)C12C(=O)OC2COC (stereo not given) (tested in a mixture with another compound)		> 63.3 µM		> 100 µM		> 100 µM		> 100 µM				71.4 µM		
COc1ccc(C(=O)/C=C/c2cccnc2Nc2cc(OC)c(OC)c(OC)c2)cc1	2.67 µM	12.4 µM	3.1 µM	11.6 µM	1 µM	6.29 µM	5.31 µM	38.6 µM						
CC[C@H](C)[C@H](NC(=O)[C@H]1CCCCN1C)C(=O)N(C)[C@H](CCc1nc(C(=O)N[C@@H](Cc2ccccc2)C[C@H](C)C(=O)OC)cs1)C(C)C	0.36 µM	1.8 µM	0.177 µM	2.48 µM	1.38 µM	> 25 µM	0.322 µM	5.29 µM						
COc1ccc(-c2nc(-c3nc4ccc(C)cc4[nH]3)c3ccccn23)cc1	3.09 µM	> 100 µM	2.55 µM	6.36 µM	2.71 µM	8.06 µM	2.17 µM	6.05 µM						
COc1cc(Cc2cc(OC)c(OC)c(OC)c2)ccc1O									> 100 µM					
COc1cc2c3c(n(CCCBr)c(=O)c2cc1OC)-c1ccc(NC(C)=O)cc1C3=O	25.8 µM	> 100 µM	8 µM	34.7 µM	39.4 µM	> 100 µM	40.6 µM	> 100 µM						
COc1cc(C(=O)O[C@H](C(N)=O)[C@]2(C)CO2)c2ccccc2c1	13 µM	27.7 µM	18.5 µM	38.9 µM	12.3 µM	30.3 µM	16.6 µM	41 µM						
CC#CC(=O)Nc1ccccc1CC(c1c[nH]c2ccccc12)c1c[nH]c2ccccc12											32.7 µM			

From PubChem BioAssay (NCI)
